Assay results: ChEMBL document CHEMBL1201862, “PubChem BioAssay data set” (2004)
Active and inactive are the calls of the source. For most assays here, no stated cut-off is given here; in the data, actives have a measured IC50 and inactives only a lower limit.

Experiments:
[1] = target: T1, Nucleotide-binding oligomerization domain-containing protein 1 (Homo sapiens, UniProt Q9Y239); experiment: SAR analysis of compounds that inhibit NOD1 - Set 3. [Related pubchem assays (depositor defined):AID1566, AID1575, AID1578, AID1849, AID1852, AID2333, AID2335, AID2466]; assay type: functional
T1 sequence (Q9Y239 whole entry): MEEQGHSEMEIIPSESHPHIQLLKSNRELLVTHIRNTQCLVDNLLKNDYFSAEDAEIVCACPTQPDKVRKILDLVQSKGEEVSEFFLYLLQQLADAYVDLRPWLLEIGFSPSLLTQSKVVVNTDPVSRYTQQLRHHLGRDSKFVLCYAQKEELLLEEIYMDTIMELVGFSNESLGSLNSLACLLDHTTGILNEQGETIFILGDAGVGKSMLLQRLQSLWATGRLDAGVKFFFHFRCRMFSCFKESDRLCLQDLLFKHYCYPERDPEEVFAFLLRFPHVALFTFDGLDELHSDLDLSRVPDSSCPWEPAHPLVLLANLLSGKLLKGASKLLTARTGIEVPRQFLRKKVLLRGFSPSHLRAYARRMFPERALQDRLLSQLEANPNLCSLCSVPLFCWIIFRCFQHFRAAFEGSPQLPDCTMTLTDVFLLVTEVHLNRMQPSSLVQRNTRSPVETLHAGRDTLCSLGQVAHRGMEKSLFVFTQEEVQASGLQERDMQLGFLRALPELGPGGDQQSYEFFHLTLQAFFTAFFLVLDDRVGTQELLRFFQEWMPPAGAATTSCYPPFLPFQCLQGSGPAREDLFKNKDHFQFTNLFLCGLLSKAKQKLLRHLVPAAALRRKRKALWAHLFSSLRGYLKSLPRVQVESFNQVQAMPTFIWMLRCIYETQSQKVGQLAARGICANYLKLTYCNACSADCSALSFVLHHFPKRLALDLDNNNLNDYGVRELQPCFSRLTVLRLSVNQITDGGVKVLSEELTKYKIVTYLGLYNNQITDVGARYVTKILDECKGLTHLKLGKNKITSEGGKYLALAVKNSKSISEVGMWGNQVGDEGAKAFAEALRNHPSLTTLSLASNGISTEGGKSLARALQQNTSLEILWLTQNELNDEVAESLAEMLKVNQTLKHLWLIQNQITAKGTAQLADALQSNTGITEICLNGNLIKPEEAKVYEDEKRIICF

Tumor necrosis factor [2] = target: T2, Tumor necrosis factor (Homo sapiens, UniProt P01375); experiment: TNFa-triggered NF-kB activation inhibitors, SAR follow-up, cell-based, set 3 (AID 2801); assay type: functional
T2 sequence (P01375 whole entry, the tested form may be a part): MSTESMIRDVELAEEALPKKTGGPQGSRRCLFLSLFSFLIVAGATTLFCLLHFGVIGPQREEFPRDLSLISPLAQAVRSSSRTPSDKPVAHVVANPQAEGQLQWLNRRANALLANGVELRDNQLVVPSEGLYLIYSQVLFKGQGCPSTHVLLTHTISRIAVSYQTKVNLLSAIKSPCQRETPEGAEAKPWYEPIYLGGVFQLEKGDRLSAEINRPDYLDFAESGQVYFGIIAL

[3] = target: T3, Nucleotide-binding oligomerization domain-containing protein 2 (Homo sapiens, UniProt Q9HC29); experiment: NOD2 signaling inhibitors, analog potency, SAR follow-up, cell-based, set 3 (AID 2799); assay type: functional
T3 sequence (Q9HC29 whole entry, the tested form may be a part): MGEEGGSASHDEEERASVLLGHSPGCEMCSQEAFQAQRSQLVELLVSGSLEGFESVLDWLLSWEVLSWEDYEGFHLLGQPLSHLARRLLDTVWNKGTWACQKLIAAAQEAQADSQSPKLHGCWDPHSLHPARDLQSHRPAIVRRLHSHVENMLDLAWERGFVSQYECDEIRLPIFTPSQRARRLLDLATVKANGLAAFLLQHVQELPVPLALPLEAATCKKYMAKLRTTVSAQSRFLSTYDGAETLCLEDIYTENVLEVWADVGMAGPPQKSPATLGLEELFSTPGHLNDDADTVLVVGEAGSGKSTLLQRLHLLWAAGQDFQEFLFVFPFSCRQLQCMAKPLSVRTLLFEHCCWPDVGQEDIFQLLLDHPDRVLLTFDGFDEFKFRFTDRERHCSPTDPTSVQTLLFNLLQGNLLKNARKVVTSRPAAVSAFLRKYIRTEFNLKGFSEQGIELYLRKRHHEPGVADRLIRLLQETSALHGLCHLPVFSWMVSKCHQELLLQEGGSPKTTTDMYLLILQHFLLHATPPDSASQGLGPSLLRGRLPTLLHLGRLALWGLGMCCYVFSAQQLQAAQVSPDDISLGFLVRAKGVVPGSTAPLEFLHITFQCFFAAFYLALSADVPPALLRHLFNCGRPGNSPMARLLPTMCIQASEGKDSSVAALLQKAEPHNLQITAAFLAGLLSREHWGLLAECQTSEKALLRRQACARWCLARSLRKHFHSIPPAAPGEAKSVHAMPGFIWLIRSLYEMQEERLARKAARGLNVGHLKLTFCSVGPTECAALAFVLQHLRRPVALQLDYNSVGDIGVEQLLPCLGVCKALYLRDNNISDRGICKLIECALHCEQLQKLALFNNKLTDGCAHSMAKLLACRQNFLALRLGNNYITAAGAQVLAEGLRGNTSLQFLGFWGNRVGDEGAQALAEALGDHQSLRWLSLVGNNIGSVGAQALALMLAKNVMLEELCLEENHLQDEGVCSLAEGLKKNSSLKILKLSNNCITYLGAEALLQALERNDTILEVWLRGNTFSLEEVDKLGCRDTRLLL

HEK293 [4] = experiment: SAR analysis of compounds that are cytotoxic to HEK293 - Set 3. [Related pubchem assays (depositor defined):AID1575, AID1578, AID1848, AID1849, AID2001, AID2333, AID2334, AID2335, AID2337, AID2469]; assay type: functional, cell-based; conditions: Homo sapiens
[5] = target: Lysine-specific demethylase 4C (Homo sapiens, UniProt Q9H3R0); experiment: GASC-1 (JMJD2C) histone demethylase inhibitors, dose response, biochemical, DELFIA europium, cherry-picked samples (AID 488835); assay type: functional
Chain of Lysine-specific demethylase 4C (Q9H3R0 whole entry): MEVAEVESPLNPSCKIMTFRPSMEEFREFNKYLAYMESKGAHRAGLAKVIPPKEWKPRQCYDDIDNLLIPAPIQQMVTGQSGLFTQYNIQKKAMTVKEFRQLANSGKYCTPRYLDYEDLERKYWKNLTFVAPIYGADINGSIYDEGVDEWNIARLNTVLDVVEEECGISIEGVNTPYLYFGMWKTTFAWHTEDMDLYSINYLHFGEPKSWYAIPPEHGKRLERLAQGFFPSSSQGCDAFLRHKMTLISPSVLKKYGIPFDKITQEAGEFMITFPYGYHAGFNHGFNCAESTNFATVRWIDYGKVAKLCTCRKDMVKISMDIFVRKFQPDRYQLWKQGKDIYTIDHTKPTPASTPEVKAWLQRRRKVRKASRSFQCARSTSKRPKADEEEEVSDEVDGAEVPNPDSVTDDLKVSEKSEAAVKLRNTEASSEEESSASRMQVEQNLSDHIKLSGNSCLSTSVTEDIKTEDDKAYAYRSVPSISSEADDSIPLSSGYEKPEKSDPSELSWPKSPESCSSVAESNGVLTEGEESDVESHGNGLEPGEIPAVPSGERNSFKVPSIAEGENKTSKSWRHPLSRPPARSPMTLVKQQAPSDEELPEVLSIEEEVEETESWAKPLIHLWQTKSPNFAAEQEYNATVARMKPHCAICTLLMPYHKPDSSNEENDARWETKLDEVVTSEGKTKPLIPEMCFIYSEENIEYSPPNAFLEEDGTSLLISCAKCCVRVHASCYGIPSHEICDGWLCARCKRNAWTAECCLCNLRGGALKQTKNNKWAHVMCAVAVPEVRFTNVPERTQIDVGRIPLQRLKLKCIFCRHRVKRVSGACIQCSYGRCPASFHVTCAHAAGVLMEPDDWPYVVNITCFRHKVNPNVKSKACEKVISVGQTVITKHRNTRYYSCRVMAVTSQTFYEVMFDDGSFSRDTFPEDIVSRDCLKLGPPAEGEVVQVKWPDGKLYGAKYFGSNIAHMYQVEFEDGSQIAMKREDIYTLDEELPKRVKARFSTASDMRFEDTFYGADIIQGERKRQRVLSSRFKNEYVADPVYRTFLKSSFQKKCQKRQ

Tumor necrosis factor [6] = target: T2, Tumor necrosis factor; experiment: TNFa-triggered NF-kB activation inhibitors, SAR follow-up, cell-based, revised (AID 2337); assay type: functional
[7] = target: T1, Nucleotide-binding oligomerization domain-containing protein 1; experiment: NOD1 signaling inhibitors, SAR follow-up, revised (AID 2333); assay type: functional
HEK293 [8] = experiment: cells; conditions: Homo sapiens
HEK293 [9] = experiment: cells; conditions: Homo sapiens; remark: listed apart in the source
HEK293 [10] = experiment: cells; conditions: Homo sapiens; remark: listed apart in the source
Coagulation factor XII = target: T4, Coagulation factor XII (Homo sapiens, UniProt P00748); assay type: functional;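 further: activated factor XIIa alpha cleaving a fluorogenic AMC peptide substrate; inhibitor potency from loss of enzyme activity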
T4 sequence (P00748 whole entry): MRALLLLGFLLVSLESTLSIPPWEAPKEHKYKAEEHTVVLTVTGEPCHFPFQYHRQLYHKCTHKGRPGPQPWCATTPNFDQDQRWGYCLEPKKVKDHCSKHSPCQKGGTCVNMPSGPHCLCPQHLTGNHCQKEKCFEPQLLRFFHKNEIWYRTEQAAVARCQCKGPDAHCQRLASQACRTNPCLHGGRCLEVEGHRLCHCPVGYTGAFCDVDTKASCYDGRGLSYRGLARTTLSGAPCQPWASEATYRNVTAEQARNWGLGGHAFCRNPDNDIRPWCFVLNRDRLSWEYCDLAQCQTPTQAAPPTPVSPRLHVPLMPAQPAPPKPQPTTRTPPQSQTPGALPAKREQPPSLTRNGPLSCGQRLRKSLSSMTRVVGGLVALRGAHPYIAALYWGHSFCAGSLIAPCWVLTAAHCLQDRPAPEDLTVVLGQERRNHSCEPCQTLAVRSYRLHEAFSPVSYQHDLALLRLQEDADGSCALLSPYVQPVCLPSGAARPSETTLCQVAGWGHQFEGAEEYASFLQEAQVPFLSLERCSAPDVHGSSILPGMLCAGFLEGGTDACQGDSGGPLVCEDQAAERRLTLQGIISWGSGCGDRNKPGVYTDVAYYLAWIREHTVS

[11] = target: Alkaline phosphatase, placental type (Homo sapiens, UniProt P05187); experiment: PLAP enzyme inhibitors, confirmation, biochemical, luminescence (AID 1512); assay type: functional
Chain of Alkaline phosphatase, placental type (P05187 whole entry): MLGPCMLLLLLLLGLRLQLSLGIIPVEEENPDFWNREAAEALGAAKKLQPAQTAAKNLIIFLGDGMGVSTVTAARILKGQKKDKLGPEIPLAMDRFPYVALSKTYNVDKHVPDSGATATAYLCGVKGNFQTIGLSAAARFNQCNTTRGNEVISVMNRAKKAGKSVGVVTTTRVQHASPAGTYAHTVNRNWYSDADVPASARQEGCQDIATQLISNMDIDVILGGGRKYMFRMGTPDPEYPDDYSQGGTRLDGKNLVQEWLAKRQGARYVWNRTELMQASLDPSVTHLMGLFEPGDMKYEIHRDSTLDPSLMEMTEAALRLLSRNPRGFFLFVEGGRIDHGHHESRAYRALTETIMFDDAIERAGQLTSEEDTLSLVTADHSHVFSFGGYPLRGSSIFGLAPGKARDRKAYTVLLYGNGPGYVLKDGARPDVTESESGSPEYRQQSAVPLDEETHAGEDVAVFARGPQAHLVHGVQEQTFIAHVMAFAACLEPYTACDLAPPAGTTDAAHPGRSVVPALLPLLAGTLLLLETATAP

[12] = target: T5, Alkaline phosphatase, tissue-nonspecific isozyme (Homo sapiens, UniProt P05186); experiment: human TNAP enzyme inhibitors, SAR follow-up, biochemical, luminescent, dose response (AID 1056)
T5 sequence (P05186 whole entry): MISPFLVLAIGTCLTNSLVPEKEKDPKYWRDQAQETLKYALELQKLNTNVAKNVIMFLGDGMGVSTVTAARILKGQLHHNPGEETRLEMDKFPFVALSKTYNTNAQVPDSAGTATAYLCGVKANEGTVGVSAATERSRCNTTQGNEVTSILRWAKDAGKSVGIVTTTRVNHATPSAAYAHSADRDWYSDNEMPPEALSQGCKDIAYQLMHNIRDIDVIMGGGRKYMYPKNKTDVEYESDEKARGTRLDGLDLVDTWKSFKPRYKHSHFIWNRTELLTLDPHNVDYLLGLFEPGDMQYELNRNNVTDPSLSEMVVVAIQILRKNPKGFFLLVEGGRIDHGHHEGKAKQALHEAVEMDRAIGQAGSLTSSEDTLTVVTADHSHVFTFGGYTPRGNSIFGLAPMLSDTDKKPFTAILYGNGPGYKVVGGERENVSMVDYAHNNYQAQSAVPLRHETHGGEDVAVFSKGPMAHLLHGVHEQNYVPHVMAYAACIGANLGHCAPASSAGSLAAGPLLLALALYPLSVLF

HEK293 [13] = experiment: cells; assay type: functional, cell-based; conditions: Homo sapiens
[14] = target: T3, Nucleotide-binding oligomerization domain-containing protein 2; experiment: NOD2 signaling inhibitors, cell-based, luminescence, uHTS, HEK293 (AID 1566); assay type: functional
HEK293 [15] = experiment: cells; assay type: functional, cell-based; conditions: Homo sapiens; remark: listed apart in the source
HEK293 [16] = experiment: NOD1 signaling inhibitors, primary screen, cell-based, luminescence, uHTS (AID 1578); assay type: functional; conditions: Homo sapiens
HEK293 [17] = experiment: NOD2 signaling inhibitors in MDP-stimulated cells, cell-based, uHTS, luminescence (AID 2001); assay type: functional; conditions: Homo sapiens
HEK293 [18] = experiment: cells; assay type: functional, cell-based; conditions: Homo sapiens; remark: listed apart in the source
Nonstructural protein 1 = Nonstructural protein 1 (Influenza A virus, UniProt Q194T2); assay type: functional, Influenza A virus (A/California/07/2009(H1N1))
Chain of Nonstructural protein 1 (Q194T2 whole entry): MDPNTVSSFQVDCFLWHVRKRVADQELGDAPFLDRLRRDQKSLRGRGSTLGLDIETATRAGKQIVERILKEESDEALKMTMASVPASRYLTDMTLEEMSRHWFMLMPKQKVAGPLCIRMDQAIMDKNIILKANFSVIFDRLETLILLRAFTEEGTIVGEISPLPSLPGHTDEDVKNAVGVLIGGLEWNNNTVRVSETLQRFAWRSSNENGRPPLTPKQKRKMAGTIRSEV

Q: Which results are given for `COc1ccc(-c2cc(N)n(S(=O)(=O)c3ccc(F)c(C)c3)n2)cc1`?
A: IC50 [1]: > 20 µM (inactive); IC50 (Tumor necrosis factor [2]): 19.9 µM (active); IC50 [3]: > 20 µM (inactive); IC50 (HEK293 [4]): > 20 µM (inactive)

Q: For `CCCN(C(=O)Cc1ccc(S(=O)(=O)N2CCOCC2)s1)c1c(N)n(Cc2ccccc2)c(=O)[nH]c1=O`, which AC50 [5] is on record?
A: Its AC50 is 39.2 µM (active).

Q: Which IC50 [1] does the source give for `Nc1nc2ccccc2n1S(=O)(=O)c1ccc(F)cc1` here?
A: Its IC50 is 4.31 µM (active).

Q: And the IC50 (Tumor necrosis factor [2])?
A: Its IC50 is > 20 µM (inactive).

Q: And the IC50 [3]?
A: The IC50 was > 20 µM (inactive).

Q: What about the IC50 (HEK293 [4]) of the same compound?
A: The IC50 was > 20 µM (inactive).

Q: `CC1Cc2cc(S(=O)(=O)N3CCN(c4ccc([N+](=O)[O-])cc4)CC3)ccc2N1C(=O)C1CC1` (centres undefined) was tested. Which IC50 (Tumor necrosis factor [6]) did it give?
A: The IC50 was 0.236 µM (active).

Q: What about the IC50 [7] of the same compound?
A: Its IC50 is 0.26 µM (active).

Q: What about the IC50 (HEK293 [8]) of the same compound?
A: The IC50 was 15.2 µM (active).

Q: For `Cc1cccc(NC(=O)CSCC(=O)Nc2cc(C(F)(F)F)ccc2N2CCOCC2)c1`, which EC50 (HEK293 [9]) is on record?
A: The EC50 was > 59.6 µM (inactive).

Q: What about the EC50 (HEK293 [10]) of the same compound?
A: The EC50 was > 59.6 µM (inactive).

Q: With `Cn1c(SCC(=O)c2ccccc2)nnc1-c1cccc(N)c1` as the compound, how does the IC50 (Coagulation factor XII) read?
A: The IC50 was > 50 µM (inactive).

Q: What about the IC50 [11] of the same compound?
A: Its IC50 is > 100 µM (inactive).

Q: And the IC50 [12]?
A: The IC50 was > 100 µM (inactive).

Q: `COc1cc(/C=C2\CCC/C(=C\c3ccc(O)c(OC)c3)C2=O)ccc1O` [CYCLOVALONE] was tested. Which IC50 (HEK293 [13]) did it give?
A: Its IC50 is > 20 µM (inactive).

Q: What about the EC50 [14] of the same compound?
A: The EC50 was 9.95 µM (active).

Q: And the IC50 (HEK293 [15])?
A: Its IC50 is 3.6 µM (active).

Q: And the EC50 (HEK293 [16])?
A: The EC50 was 4.94 µM (active).

Q: What about the IC50 (HEK293 [17]) of the same compound?
A: The IC50 was 3.75 µM (active).

Q: What about the IC50 (HEK293 [18]) of the same compound?
A: Its IC50 is > 20 µM (inactive).

Q: And the IC50 (Nonstructural protein 1)?
A: The IC50 was > 100 µM (active).
